By IC50 is commonly meant the concentration that gives 50% inhibition.

The values that follow come from patent publication US9580430B2, “9H-pyrimido[4,5-B]indoles and related analogs as BET bromodomain inhibitors” (THE REGENTS OF THE UNIVERSITY OF MICHIGAN, priority 2014, dated 2017).

One experiment addresses T1, recombinant BRD4 BD1 (Homo sapiens, UniProt O60885).
T1 construct: for recombinant BRD4 BD1 and BRD4 BD2 proteins
Kind of experiment: Competitive fluorescence-polarization (FP) binding assay, BRD4 BD1. Also: probe 1.5 nM. The note with it: competitive FP assay; protein 10 nM, probe […]; read-out: IC50 (nM) BRD4 BD1. The method in brief: (§1)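 Buffer: 100 mM potassium phosphate, pH 6.5, 0.01% Triton X-100; compounds added in buffer with 40% ethylene glycol to preformed complex of fluorescent probe with BRD4 BD1 (10 nM final) or BD2 (6 nM final). After 30 min at room temperature, polarization read. IC50 from nonlinear fits of competition curves, with Ki.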

In a further experiment the test system is MDA-MB-436. The experiment is described as follows: Cell growth inhibition, MDA-MB-436 breast cancer cells (WST-8). It is filed as cell-based. The settings on record: Homo sapiens, MDA-MB-436, 96 h; 4 days; read-out: IC50 (nM) MDA-MB-436 Cell Line (WST assay). The method in brief: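 IC50 was computed from WST-8-based cell counting in MDA-MB-436 cells, with absorbance read at 450 nm.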
For orientation: Tetrazolium assays rely on reduction of a dye to a coloured formazan, in cell work by metabolically active cells.

In a further experiment the test system is MOLM-13. The experiment is described as follows: Cell growth inhibition, MOLM-13 leukemia cells (CellTiter-Glo). The settings on record: Homo sapiens, MOLM-13, 96 h; 4 days; read-out: IC50 (nM) MOLM-13 Cell Line (CellTiter-Glo assay). Format: cell-based. The method in brief:
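Luminescent ATP-based viability (CellTiter-Glo, 10-20 min at room temperature) in compound-treated MOLM-13 cells; the half-maximal inhibitory concentration was calculated from the readout.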
For orientation: In ATP-based viability assays light output follows the ATP content of the culture.

The next experiment concerns the target T2, recombinant BRD4 BD2 (Homo sapiens, UniProt O60885).
T2 construct: for recombinant BRD4 BD1 and BRD4 BD2 proteins
Kind of experiment: Competitive fluorescence-polarization (FP) binding assay, BRD4 BD2. Also: probe 1.5 nM. The note with it: competitive FP assay; protein 6 nM, probe […]; read-out: IC50 (nM) BRD4 BD2. A digest of the protocol: as §1

As for `COc1cc2c(cc1-c1c(C)noc1C)[nH]c1nc(C)nc(Nc3c(C)cnn3C(C)C)c12` [Cpd. No. 37, 7-(3,5-dimethylisoxazol-4-yl)-N-(1-isopropyl-4-methyl-1H-pyrazol-5-yl)-6-methoxy-2-methyl-9H-pyrimido[4,5-b]indol-4-amine], the half-inhibitory concentration (IC50) amounted to 12.1 nM at recombinant BRD4 BD1, 56.2 nM in the experiment on MDA-MB-436, 54.1 nM with MOLM-13 and 6.5 nM at recombinant BRD4 BD2.

For `COc1cc2c(cc1-c1c(C)noc1C)[nH]c1nc(C)nc(Nc3nn(C)c4ccc(Cl)cc34)c12` [Cpd. No. 13, N-(5-Chloro-1-methyl-1H-indazol-3-yl)-7-(3,5-dimethylisoxazol-4-yl)-6-methoxy-2-methyl-9H-pyrimido[4,5-b]indol-4-amine], the 50% inhibitory concentration (IC50) at recombinant BRD4 BD1 was more than 1000 nM; in the experiment on MDA-MB-436 it was 1080 nM; with MOLM-13, 108 nM; on recombinant BRD4 BD2, more than 1000 nM.

In the case of `COc1cc2c(cc1-c1c(C)noc1C)[nH]c1nc(C)nc(Nc3cccc4c3cnn4C)c12` [Cpd. No. 235, 7-(3,5-dimethylisoxazol-4-yl)-6-methoxy-2-methyl-N-(1-methyl-1H-indazol-4-yl)-9H-pyrimido[4,5-b]indol-4-amine], the IC50 on recombinant BRD4 BD1 is 41 nM; with MDA-MB-436, 146 nM; with MOLM-13, 74 nM; at recombinant BRD4 BD2 it was 52 nM.

Turning to `COc1cc2c(cc1-c1c(C)noc1C)[nH]c1nc(C)nc(Nc3n[nH]c(C)c3-c3ccccc3)c12` [Cpd. No. 5, 7-(3,5-Dimethylisoxazol-4-yl)-6-methoxy-2-methyl-N-(5-methyl-4-phenyl-1H-pyrazol-3-yl)-9H-pyrimido[4,5-b]indol-4-amine], the IC50 on recombinant BRD4 BD1 is 340 nM; in the experiment on MDA-MB-436, 719 nM; in the experiment with MOLM-13, 475 nM; at recombinant BRD4 BD2, 381 nM.

As to `COc1cc2c(cc1-c1c(C)noc1C)[nH]c1nc(C)nc(Nc3cccc4ncsc34)c12` [Cpd. No. 229, N-(7-(3,5-dimethylisoxazol-4-yl)-6-methoxy-2-methyl-9H-pyrimido[4,5-b]indol-4-yl)benzo[d]thiazol-7-amine], the IC50 on recombinant BRD4 BD1 worked out at 24 nM; in the experiment on MDA-MB-436, 88 nM; with MOLM-13, 69 nM; at recombinant BRD4 BD2, 22 nM.

In the case of `COc1cc2c(cc1-c1c(C)noc1C)[nH]c1nc(C)nc(Nc3nnc4ccccn34)c12` [compound 101, N-([1,2,4]triazolo[4,3-a]pyridin-3-yl)-7-(3,5-dimethylisoxazol-4-yl)-6-methoxy-2-methyl-9H-pyrimido[4,5-b]indol-4-amine], the IC50 on recombinant BRD4 BD1 is 978 nM; in the experiment with MDA-MB-436, 811 nM; with MOLM-13 it was 266 nM; on recombinant BRD4 BD2, 786 nM.

Consider `CCn1nc(C)cc1Nc1nc(C)nc2[nH]c3cc(-c4c(C)noc4C)c(OC)cc3c12` [Cpd. No. 116, 7-(3,5-Dimethylisoxazol-4-yl)-N-(1-ethyl-3-methyl-1H-pyrazol-5-yl)-6-methoxy-2-methyl-9H-pyrimido[4,5-b]indol-4-amine], for which the IC50 at recombinant BRD4 BD1 turned out to be 14 nM; with MDA-MB-436 it was 26.3 nM; with MOLM-13, 15.4 nM; at recombinant BRD4 BD2, 9.6 nM.

On to `COc1cc2c(cc1-c1c(C)noc1C)[nH]c1nc(C)nc(Nc3c4c(nn3CCO)CCC4)c12` [Cpd. No. 150, 2-(3-((7-(3,5-Dimethylisoxazol-4-yl)-6-methoxy-2-methyl-9H-pyrimido[4,5-b]indol-4-yl)amino)-5,6-dihydrocyclopenta[c]pyrazol-2(4H)-yl)ethanol], for which the half-maximal inhibitory concentration (IC50) at recombinant BRD4 BD1 amounted to 9.6 nM; with MDA-MB-436, 29.8 nM; in the experiment on MOLM-13, 7.2 nM; on recombinant BRD4 BD2, 7.2 nM.

For the compound `COc1cc2c(cc1-c1c(C)noc1C)[nH]c1nc(C)nc(Nc3cc(C(C)C)nn3C)c12` [Cpd. No. 65, 7-(3,5-Dimethylisoxazol-4-yl)-N-(3-isopropyl-1-methyl-1H-pyrazol-5-yl)-6-methoxy-2-methyl-9H-pyrimido[4,5-b]indol-4-amine], the half-inhibitory concentration (IC50) at recombinant BRD4 BD1 worked out at 6.1 nM; with MDA-MB-436, 26 nM; with MOLM-13 it was 11.7 nM; at recombinant BRD4 BD2 it was 4.1 nM.

Consider `CCn1nc2c(c1Nc1nc(C)nc3[nH]c4cc(-c5c(C)noc5C)c(OC)cc4c13)CCCC2` [Cpd. No. 142, 7-(3,5-Dimethylisoxazol-4-yl)-N-(2-ethyl-4,5,6,7-tetrahydro-2H-indazol-3-yl)-6-methoxy-2-methyl-9H-pyrimido[4,5-b]indol-4-amine], for which the IC50 was found to be 4.5 nM at recombinant BRD4 BD1, 7.3 nM in the experiment with MDA-MB-436, 1.1 nM in the experiment with MOLM-13 and 0.5 nM at recombinant BRD4 BD2.

As to `COc1cc2c(cc1-c1c(C)noc1C)[nH]c1nc(C)nc(Nc3cc(C4(C)CC4)nn3C)c12` [Cpd. No. 251, 7-(3,5-dimethylisoxazol-4-yl)-6-methoxy-2-methyl-N-(1-methyl-3-(1-methylcyclopropyl)-1H-pyrazol-5-yl)-9H-pyrimido[4,5-b]indol-4-amine], the 50% inhibitory concentration (IC50) at recombinant BRD4 BD1 was 9 nM; in the experiment with MDA-MB-436, 23 nM; in the experiment on MOLM-13, 11 nM; at recombinant BRD4 BD2, 5.5 nM.

As for `COc1cc2c(cc1-c1c(C)noc1C)[nH]c1nc(C)nc(Nc3cn(C)nc3C(F)(F)F)c12` [Cpd. No. 179, 7-(3,5-dimethylisoxazol-4-yl)-6-methoxy-2-methyl-N-(1-methyl-3-(trifluoromethyl)-1H-pyrazol-4-yl)-9H-pyrimido[4,5-b]indol-4-amine], the IC50 amounted to 166 nM at recombinant BRD4 BD1, 330 nM in the experiment with MDA-MB-436, 2080 nM in the experiment on MOLM-13 and 116 nM on recombinant BRD4 BD2.

`CCn1nc(C2CC2)c(C)c1Nc1nc(C)nc2[nH]c3cc(-c4c(C)noc4C)c(OC)cc3c12` [Cpd. No. 145, N-(3-Cyclopropyl-1-ethyl-4-methyl-1H-pyrazol-5-yl)-7-(3,5-dimethylisoxazol-4-yl)-6-methoxy-2-methyl-9H-pyrimido[4,5-b]indol-4-amine]: the IC50 amounted to 18.9 nM at recombinant BRD4 BD1, 170 nM in the experiment with MDA-MB-436, 69.5 nM in the experiment on MOLM-13 and 56.9 nM on recombinant BRD4 BD2.

In the case of `COc1cc2c(cc1-c1c(C)noc1C)[nH]c1nc(C)nc(Nc3c(C4CC4)nn(C)c3C3CC3)c12` [Cpd. No. 239, N-(3,5-dicyclopropyl-1-methyl-1H-pyrazol-4-yl)-7-(3,5-dimethylisoxazol-4-yl)-6-methoxy-2-methyl-9H-pyrimido[4,5-b]indol-4-amine], the IC50 was 19 nM on recombinant BRD4 BD1, 43 nM in the experiment on MDA-MB-436, 22 nM in the experiment on MOLM-13 and 28 nM at recombinant BRD4 BD2.

For `COc1cc2c(cc1-c1c(C)noc1C)[nH]c1nc(C)nc(Nc3cncc(Cl)c3)c12` [Cpd. No. 106, N-(5-chloropyridin-3-yl)-7-(3,5-dimethylisoxazol-4-yl)-6-methoxy-2-methyl-9H-pyrimido[4,5-b]indol-4-amine], the IC50 on recombinant BRD4 BD1 came to 1410 nM; in the experiment on MDA-MB-436, 618 nM; in the experiment with MOLM-13, 56 nM; on recombinant BRD4 BD2, 619 nM.

With `COc1cc2c(cc1-c1c(C)noc1C)[nH]c1nc(C)nc(Nc3c(F)c(C4CC4)nn3C)c12` [Cpd. No. 249, N-(3-cyclopropyl-4-fluoro-1-methyl-1H-pyrazol-5-yl)-7-(3,5-dimethylisoxazol-4-yl)-6-methoxy-2-methyl-9H-pyrimido[4,5-b]indol-4-amine], the half-maximal inhibitory concentration (IC50) at recombinant BRD4 BD1 turned out to be 29 nM; with MDA-MB-436 it was 302 nM; in the experiment on MOLM-13, 159 nM; at recombinant BRD4 BD2 it was 99 nM.

In the case of `COc1cc2c(cc1-c1c(C)noc1C)[nH]c1nc(C)nc(Nc3onc(C)c3C)c12` [Cpd. No. 219, N-(7-(3,5-dimethylisoxazol-4-yl)-6-methoxy-2-methyl-9H-pyrimido[4,5-b]indol-4-yl)-3,4-dimethylisoxazol-5-amine], the IC50 on recombinant BRD4 BD1 was found to be 219 nM; with MDA-MB-436, 849 nM; with MOLM-13, 912 nM; at recombinant BRD4 BD2 it was 365 nM.

On to `COc1cc2c(cc1-c1c(C)noc1C)[nH]c1nc(C)nc(Nc3c(C4CC4)c(C)nn3C)c12` [Cpd. No. 140, N-(4-Cyclopropyl-1,3-dimethyl-1H-pyrazol-5-yl)-7-(3,5-dimethylisoxazol-4-yl)-6-methoxy-2-methyl-9H-pyrimido[4,5-b]indol-4-amine], for which the IC50 at recombinant BRD4 BD1 was 39.3 nM; in the experiment with MDA-MB-436, 210 nM; in the experiment on MOLM-13 it was 120 nM; at recombinant BRD4 BD2, 95 nM.

In the case of `COc1cc2c(cc1-c1c(C)noc1C)[nH]c1nc(C)nc(Nc3nn(C)c4c(F)cccc34)c12` [Cpd. No. 129, 7-(3,5-Dimethylisoxazol-4-yl)-N-(7-fluoro-1-methyl-1H-indazol-3-yl)-6-methoxy-2-methyl-9H-pyrimido[4,5-b]indol-4-amine], the half-maximal inhibitory concentration (IC50) on recombinant BRD4 BD1 was found to be 105 nM; in the experiment with MDA-MB-436 it was 201 nM; in the experiment on MOLM-13, 144 nM; on recombinant BRD4 BD2, 202 nM.

Turning to `COc1cc2c(cc1-c1c(C)noc1C)[nH]c1nc(C)nc(Nc3cccc4c3ccn4C)c12` [Cpd. No. 236, 7-(3,5-dimethylisoxazol-4-yl)-6-methoxy-2-methyl-N-(1-methyl-1H-indol-4-yl)-9H-pyrimido[4,5-b]indol-4-amine], the IC50 at recombinant BRD4 BD1 is 14 nM; in the experiment on MDA-MB-436, 117 nM; in the experiment with MOLM-13 it was 49 nM; at recombinant BRD4 BD2 it was 59 nM.
